From patent US20220411372A1, “SMALL-MOLECULE INHIBITORS FOR THE B-CATENIN/B-CELL LYMPHOMA 9 PROTEIN-PROTEIN INTERACTION” (H. Lee Moffitt Cancer Center and Research Institute, Inc., priority 2019, published 2022) come the findings set out here.

Read-outs that look alike come from different tables or passages of the source.

This test concerns the target T1, β-catenin/BCL9 PPI (Homo sapiens, UniProt P35222).
T1 construct: Full-length β-catenin (residues 1-781) were cloned into a pET-28b vector; made in house; host or cells: E. coli BL21 DE3 (β-catenin); BCL9 peptide synthesized by InnoPep Inc
T1 sequence (P35222 1-781): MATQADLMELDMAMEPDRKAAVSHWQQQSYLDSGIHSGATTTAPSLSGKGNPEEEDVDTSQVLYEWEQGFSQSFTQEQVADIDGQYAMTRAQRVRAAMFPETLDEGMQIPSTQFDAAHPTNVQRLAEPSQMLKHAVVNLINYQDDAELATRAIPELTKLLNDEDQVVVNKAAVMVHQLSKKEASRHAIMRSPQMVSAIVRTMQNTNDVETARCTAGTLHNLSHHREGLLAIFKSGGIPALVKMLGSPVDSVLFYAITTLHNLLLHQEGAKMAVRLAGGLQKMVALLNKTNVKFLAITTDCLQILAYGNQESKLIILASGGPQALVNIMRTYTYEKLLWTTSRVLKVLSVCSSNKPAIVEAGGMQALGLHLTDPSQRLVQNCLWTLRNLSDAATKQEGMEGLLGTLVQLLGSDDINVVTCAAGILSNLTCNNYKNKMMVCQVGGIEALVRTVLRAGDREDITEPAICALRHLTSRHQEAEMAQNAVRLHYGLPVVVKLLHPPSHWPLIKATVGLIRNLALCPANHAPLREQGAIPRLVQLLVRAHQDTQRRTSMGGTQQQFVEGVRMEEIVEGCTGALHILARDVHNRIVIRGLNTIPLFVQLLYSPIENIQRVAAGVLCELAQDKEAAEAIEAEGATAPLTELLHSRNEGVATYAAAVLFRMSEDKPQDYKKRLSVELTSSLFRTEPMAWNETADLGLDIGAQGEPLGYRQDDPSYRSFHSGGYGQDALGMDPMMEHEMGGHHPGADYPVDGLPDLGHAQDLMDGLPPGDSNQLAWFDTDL
In words: AlphaScreen competitive inhibition assay of the β-catenin/BCL9 PPI. The test is classed as binding. The protocol: AlphaScreen Assays of β-Catenin and BCL9 Interaction. Experiments were performed in white opaque 384-well plates from PerkinElmer (Waltham, Mass.), and the samples were read on a Synergy 2 plate reader (Biotek, Winooski, Vt.) with excitation at 680 nm and emission at 570 nm. The standard AlphaScreen protocol was used with a sensitivity setting of 200. All dilutions were made in 1× assay buffer containing 25 mM Hepes (pH 7.4), 100 mM NaCl, 0.01% Triton X-100 and 0.1% BSA to minimize nonspecific interactions.
For the β-catenin/BCL9 assay, 5 nM biotinylated BCL9 and 40 nM His6-tagged β-catenin were incubated in assay buffer at 4° C. for 30 min. For the β-catenin/E-cadherin assay, 10 nM biotinylated human E-cadherin, and 40 nM His6-tagged human β-catenin were added and incubated in assay buffer at 4° C. for 30 min. Different concentrations of the tested inhibitor were added and incubated in 20 μL assay buffer at 4° C. for another 1 h. All of the assay plates were covered and gently mixed on an orbital shaker. The donor and acceptor beads were then added to the plates to a final concentration of 10 μg/mL in […]. The mixture was incubated for 1 h at 4° C. before detection. The IC50 value was determined by nonlinear least-square analysis of GraphPad Prism 5.0. […] All of the experiments were performed in triplicate and carried out in the presence of 1% DMSO for small-molecule inhibitors. Each compound was assayed at least by two independent experiments. The results were expressed as mean±standard deviation. The inhibitor selectivity for β-catenin/BCL9 over β-catenin/E-canderin interactions was defined as the ratio of the respective Ki value of β-catenin/E-cadherin interactions over that of β-catenin/BCL9 interactions.
On the technique in general: In Alpha technology, singlet oxygen from a donor bead excites a nearby acceptor bead.

The mark [1] stands for this setting: Table 1, inhibitors 1-14, read-out: Ki.
Where [2] appears, read: Table 4, right half, inhibitors 49-53, read-out: Ki ± SD.
Setting [3] is: Table 8, inhibitors 82-92, read-out: Ki.
Where [4] appears, read: Table 2, inhibitors 15-26, read-out: Ki.
[5] abbreviates: Table 3, inhibitors 27-43, read-out: Ki.
[6] abbreviates: Table 5, inhibitors 54-62, read-out: Ki.

As a reminder, the Ki is a measure of affinity in units of concentration, obtained from inhibition or displacement. For the molecule `CCN(Cc1ccc(C(C)C)cc1)C(=O)[C@@H]1CCCN(c2cccc(OC(C)(C)C(=O)O)c2)C1` [Compound 7, (R)-2-(3-(3-(ethyl(4-isopropylbenzyl)carbamoyl)piperidin-1-yl)phenoxy)-2-methylpropanoic acid], under setting [1], the Ki is more than 90 µM.

In the case of `CCN(Cc1ccc(C(C)C)cc1)C(=O)[C@H]1CCCN(c2cccc(OC(C)(C)C(=O)O)c2)C1` [Compound 8, (S)-2-(3-(3-(ethyl(4-isopropylbenzyl)carbamoyl)piperidin-1-yl)phenoxy)-2-methylpropanoic acid], under setting [1], the Ki is more than 90 µM. As for `CCOCCN(Cc1ccc(-c2cn[nH]c2)cc1)C(=O)[C@@H]1CCCN(c2cccc(OC(C)(C)C(=O)N3CCNCC3)c2)C1.Cl` [Compound 52, (R)-4-(2-(3-(3-((4-(1H-pyrazol-4-yl)benzyl)(2-ethoxyethyl)carbamoyl)piperidin-1-yl)phenoxy)-2-methylpropanoyl)piperazin-1-ium chloride], the inhibition constant Ki under setting [2] was less than 5 µM. Under “linear alkyl R1 substitutions, FIG. 4A”, the “inhibitory activity (SAR, AlphaScreen)” value is recorded as “maintained the inhibitory activities”.

Turning to `O=C(C(Oc1cccc(N2CCC[C@@H](C(=O)N(Cc3ccc(-c4cn[nH]c4)cc3)C3CC3)C2)c1)c1ccccc1)N1CCNCC1` (stereo partly drawn) [Compound 86, 4-(2-(3-((R)-3-((4-(1H-pyrazol-4-yl)benzyl)(cyclopropyl)carbamoyl)piperidin-1-yl)phenoxy)-2-phenylacetyl)piperazin-1-ium chloride], the Ki under setting [3] is less than 30 µM. As to `O=C(C(Cc1ccccc1)Oc1cccc(N2CCC[C@@H](C(=O)N(Cc3ccc(-c4cn[nH]c4)cc3)C3CC3)C2)c1)N1CCNCC1` (stereo partly drawn) [Compound 87, 4-(2-(3-((R)-3-((4-(1H-pyrazol-4-yl)benzyl)(cyclopropyl)carbamoyl)piperidin-1-yl)phenoxy)-3-phenylpropanoyl)piperazin-1-ium chloride], the Ki under setting [3] is less than 90 µM. Regarding `CC(C)(Oc1cccc(N2CCC[C@@H](C(=O)N(CCN)Cc3ccc(-c4cn[nH]c4)cc3)C2)c1)C(=O)N1CCNCC1` [Compound 53, (R)-4-(2-(3-(3-((4-(1H-pyrazol-4-yl)benzyl)(2-ammonioethyl)carbamoyl)piperidin-1-yl)phenoxy)-2-methylpropanoyl)piperazin-1-ium chloride], the Ki under setting [2] is less than 90 µM.

In the case of `CC(C)c1ccc(CNC(=O)[C@H]2CCCN(c3cccc(OC(C)(C)C(=O)O)c3)C2)cc1` [Compound 4, (S)-2-(3-(3-((4-isopropylbenzyl)carbamoyl)piperidin-1-yl)phenoxy)-2-methylpropanoic acid], the Ki under setting [1] was more than 90 µM. Turning to `CC(C)c1ccc(COC(=O)[C@H]2CCCN(c3cccc(OC(C)(C)C(=O)N4CCNCC4)c3)C2)cc1` [Compound 16, (S)-4-(2-(3-(3-(((4-isopropylbenzyl)oxy)carbonyl)piperidin-1-yl)phenoxy)-2-methylpropanoyl)piperazin-1-ium chloride], the Ki under setting [4] is not above 10 µM. With `CC(C)c1ccc(CN(C(=O)[C@H]2CCCN(c3cccc(OC(C)(C)C(=O)O)c3)C2)C2CC2)cc1` [Compound 12, (S)-2-(3-(3-(cyclopropyl(4-isopropylbenzyl)carbamoyl)piperidin-1-yl)phenoxy)-2-methylpropanoic acid], under setting [1], the Ki is more than 90 µM. The same measure, in the same setting: with `CC(C)c1ccc(COC(=O)[C@@H]2CCCN(c3cccc(OC(C)(C)C(=O)O)c3)C2)cc1` [Compound 1, (R)-2-(3-(3-(((4-isopropylbenzyl)oxy)carbonyl)piperidin-1-yl)phenoxy)-2-methylpropanoic acid] the figure was more than 90 µM.

Turning to `CC(C)(Oc1cccc(N2CCC[C@@H](C(=O)N(Cc3ccc(-c4ccccc4)cc3)C3CC3)C2)c1)C(=O)N1CCNCC1` [Compound 31, (R)-4-(2-(3-(3-(([1,1′-biphenyl]-4-ylmethyl)(cyclopropyl)carbamoyl)piperidin-1-yl)phenoxy)-2-methylpropanoyl)piperazin-1-ium chloride], the Ki under setting [5] is less than 5 µM. Turning to `CC(C)(Oc1cccc(N2CCC[C@@H](C(=O)N(Cc3ccc(C4CCCCC4)cc3)C3CC3)C2)c1)C(=O)N1CCNCC1` [Compound 29, (R)-4-(2-(3-(3-((4-cyclohexylbenzyl)(cyclopropyl)carbamoyl)piperidin-1-yl)phenoxy)-2-methylpropanoyl)piperazin-1-ium chloride], the Ki under setting [5] was not above 5 µM.

`CCN(Cc1ccc(C(C)C)cc1)C(=O)[C@@H]1CCCN(c2cccc(OC(C)(C)C(=O)N3CCNCC3)c2)C1` [Compound 21, (R)-4-(2-(3-(3-(ethyl(4-isopropylbenzyl)carbamoyl)piperidin-1-yl)phenoxy)-2-methylpropanoyl)piperazin-1-ium chloride]: the Ki under setting [4] is not above 30 µM.

Turning to `CC(C)(Oc1cccc(N2CCC[C@@H](C(=O)N(Cc3ccc(-c4cn[nH]c4)cc3)C3CC3)C2)c1)C(=O)N1CCC2(CCNC2)C1` (stereo partly drawn) [Compound 59, 7-(2-(3-((R)-3-((4-(1H-pyrazol-4-yl)benzyl)(cyclopropyl)carbamoyl)piperidin-1-yl)phenoxy)-2-methylpropanoyl)-2,7-diazaspiro[4.4]nonan-2-ium chloride], the Ki under setting [6] was less than 5 µM.

`CC(C)(Oc1cccc(N2CCCC(C(=O)N(Cc3ccc(-c4ccsc4)cc3)C3CC3)C2)c1)C(=O)O` (racemic) [Compound 104, 2-(3-(3-(cyclopropyl(4-(thiophen-3-yl)benzyl)carbamoyl)piperidin-1-yl)phenoxy)-2-methylpropanoic acid]: the Ki (Table 10, inhibitors 99-106, racemic, read-out: Ki ± SD) is not above 30 µM.

With `CC(C)(Oc1cccc(N2CCC[C@@H](C(=O)N(Cc3ccc(-c4c[nH]c5ccccc45)cc3)C3CC3)C2)c1)C(=O)N1CCNCC1` [Compound 42, (R)-4-(2-(3-(3-((4-(1H-indol-3-yl)benzyl)(cyclopropyl)carbamoyl)piperidin-1-yl)phenoxy)-2-methylpropanoyl)piperazin-1-ium], the Ki under setting [5] is less than 5 µM. Turning to `CC(C)(Oc1cccc(N2CCC[C@@H](C(=O)N3CCc4cc(-c5cn[nH]c5)ccc4C3)C2)c1)C(=O)N1CCNCC1` [Compound 92, (R)-4-(2-(3-(3-(6-(1H-pyrazol-4-yl)-1,2,3,4-tetrahydroisoquinoline-2-carbonyl)piperidin-1-yl)phenoxy)-2-methylpropanoyl)piperazin-1-ium chloride], the Ki under setting [3] is less than 90 µM. On to `CCOc1cc(-c2cn[nH]c2)ccc1CN(C(=O)[C@@H]1CCCN(c2cccc(OC(C)(C)C(=O)N3CCNCC3)c2)C1)C1CC1` [Compound 109, (R)-4-(2-(3-(3-(Cyclopropyl(2-ethoxy-4-(1H-pyrazol-4-yl)benzyl)carbamoyl)piperidin-1-yl)phenoxy)-2-methylpropanoyl)piperazin-1-ium chloride], for which the Ki (Table 12, inhibitors 109-112, read-out: Ki) was not above 30 µM. With `Cc1n[nH]cc1-c1ccc(CN(C(=O)[C@@H]2CCCN(c3cccc(OC(C)(C)C(=O)N4CCNCC4)c3)C2)C2CC2)cc1` [Compound 39, (R)-4-(2-(3-(3-(cyclopropyl(4-(3-methyl-1H-pyrazol-4-yl)benzyl)carbamoyl)piperidin-1-yl)phenoxy)-2-methylpropanoyl)piperazin-1-ium chloride], the Ki under setting [5] is not above 50 µM. As to `CC(C)(Oc1cccc(N2CCC[C@@H](C(=O)N(Cc3ccc(-c4cn[nH]c4)cc3)C3CC3)C2)c1)C(=O)N1CC2(CCNCC2)C1` [Compound 60, (R)-2-(2-(3-(3-((4-(1H-pyrazol-4-yl)benzyl)(cyclopropyl)carbamoyl)piperidin-1-yl)phenoxy)-2-methylpropanoyl)-2,7-diazaspiro[3.5]nonan-7-ium 2,2,2-trifluoroacetate], the Ki under setting [6] is less than 30 µM.
